From PubChem BioAssay AID463206 (Broad Institute, 2010) come the findings set out here.

SMILES strings stand for the structures. Active and inactive are the calls of the source.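 Rule for the calls: active = caspase luminescence falls with dose and the half-maximal concentration AC50 from the fitted curve is at or below a set limit; inconclusive = flat fit at 30 to 70% signal loss, or invalid fit; inactive = AC50 above the limit, or signal rises instead.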 Where only a bound is given, the exact number is not on record here.

The test system of the experiment is INS-1E cytokine-induced caspase-3/7, Caspase-Glo luminescence, 48 h. The experiment in a line: suppression of cytokine-driven beta-cell apoptosis – INS-1E rat cells, luminescence, orthogonal assay for beta-cell apoptosis protection project, dose response (AID 463206).

On to `CC[n+]1ccc(/C=C/c2c[nH]c3ccccc23)cc1`, for which the AC50 was > 26 µM (inactive).

`O=C(NCc1ccccc1)C1=C[C@@H](c2csc3ccccc23)C[C@@H](OCCCCO)O1`: the AC50 was > 26 µM (inactive).

Take `CC(=O)c1c(C)[nH]c(C(=O)OCC(=O)Nc2ccc(Cl)cc2[N+](=O)[O-])c1C`: the AC50 was > 26 µM (inactive).

With `O=C(N/N=C/c1ccc[nH]1)c1ccc(COc2cccc3cccnc23)cc1`, the AC50 is > 26 µM (inactive).

As for `CCCCCCOC(=O)C[N+](C)(C)CCOC1CC2CCC1(C)C2(C)C` (stereo not given), the AC50 was > 26 µM (inactive).

For `O=C(N/N=C/c1c(O)ccc2ccccc12)c1ccc(Br)o1`, the AC50 is > 26 µM (inactive).

On to `O=C(Nc1ccc(F)cc1)c1cccnc1`, for which the AC50 was > 26 µM (inactive).

Turning to `Cc1cc(C)n(-c2nc(NCCCO)c3c4c(sc3n2)CCCC4)n1`, the AC50 is > 26 µM (inactive).

As for `O=C(N/N=C/c1sc(N2CCOCC2)nc1-c1ccccc1)c1cccc(S(=O)(=O)N2CCCC2)c1`, the AC50 is > 26 µM (inactive).

Consider `Cc1cc(N2CCN(C)CC2)ccc1NC(=O)c1c2c(nc3ccccc13)CCN(Cc1ccccc1)C2`, for which the AC50 is 14.7 µM.

On to `Cn1nc(CC(=O)Nc2ccc3c(c2)OCCO3)c2ccccc2c1=O`, for which the AC50 is > 26 µM (inactive).

For the compound `Cc1cnc(NC(=O)CN2CCN(c3ccccn3)CC2)s1`, the AC50 was > 26 µM (inactive).

As for `O=C(c1ccco1)N1N=C(c2ccc(Br)cc2)CC1c1ccco1` (stereo not given), the AC50 is > 26 µM (inactive).

Consider `Cc1ccc(OCCN2CCN(c3ncnc4sc(C)c(C)c34)CC2)cc1`, for which the AC50 is > 26 µM (inactive).

With `Cc1ccc(Cl)cc1N1CCN(C(=O)CSc2nnc3n2C(C)(C)Cc2ccccc2-3)CC1`, the AC50 is > 26 µM (inactive).

For `Cc1ccccc1Cn1ccc(=NCc2ccccc2)cc1`, the AC50 was > 26 µM (inactive).

Regarding `C/C(=N/NC(=O)CN(c1ccccc1)S(=O)(=O)c1ccccc1)c1ccccc1O`, the AC50 is > 26 µM (inactive).

Consider `O=C(Nc1nc2ccc([N+](=O)[O-])cc2s1)c1ccc(S(=O)(=O)N2CCCc3ccccc32)cc1`, for which the AC50 is > 26 µM (inactive).

Regarding `Cc1ccc(-c2cn(-c3ccccc3)c3[n+]2CCCS3)cc1`, the AC50 was > 26 µM (inactive).

For the compound `CC(C)(C)Nc1nc(-c2ccccn2)nc2ccccc12`, the AC50 was > 26 µM (inactive).

As to `O=[N+]([O-])c1cccc(/C=N/n2cnnc2)c1`, the AC50 was > 26 µM (inactive).

For the compound `O=S(=O)(c1cc(F)ccc1F)N1CCN(c2ncnc3ccccc23)CC1`, the AC50 was > 26 µM (inactive).

In the case of `CC1CCN(C(=O)CCNS(=O)(=O)c2ccc(Br)cc2)CC1`, the AC50 was > 26 µM (inactive).

For the compound `COc1cc(/C=C(/C(=O)c2cccs2)c2nc3ccccc3[nH]2)ccc1O`, the AC50 was > 26 µM (inactive).

In the case of `Brc1ccc(-[n+]2c(-c3ccccc3)cc(-c3ccccc3)cc2-c2ccccc2)cc1`, the AC50 is > 26 µM (inactive).

As to `COc1ccc(CNCCc2c(C)[nH]c3ccc(OC(F)(F)F)cc23)c(OC)c1`, the AC50 is > 26 µM (inactive).

Take `Oc1cccc(/C=N/NC(=S)Nc2cccnc2)c1O`: the AC50 is > 26 µM (inactive).

`CC(=O)NC(c1cc(Cl)c2cccnc2c1O)C1CC1` (stereo not given): the AC50 was > 26 µM (inactive).

As for `C#Cc1ccc([C@@H]2C=C(C(=O)N3CCN(Cc4ccccc4)CC3)O[C@H](OCCCCO)C2)cc1`, the AC50 was > 26 µM (inactive).

As to `Cc1cc(N/N=C\c2ccc(Br)cc2)nc(-n2nc(C)cc2C)n1`, the AC50 is > 26 µM (inactive).

For `Cc1ccc(NC2=CC(=O)C(=O)c3ccccc32)c(C)c1`, the AC50 is > 26 µM (inactive).

Turning to `CN1/C(=C\C=N\NC(=O)c2ccc(O)cc2)C(C)(C)c2ccccc21`, the AC50 was > 26 µM (inactive).

Regarding `O=C(N/N=C/c1ccc([N+](=O)[O-])s1)C(O)c1ccccc1` (stereo not given), the AC50 was > 26 µM (inactive).

With `C(C#CCCCCCCCCC[n+]1ccccc1)#CCCCCCCCCC[n+]1ccccc1`, the AC50 is > 26 µM (inactive).

For the compound `c1ccc(CSc2ccc(-c3ccccn3)nn2)cc1`, the AC50 is > 26 µM (inactive).

Take `CCOC(=O)CS(=O)(=O)c1nc(-c2ccccc2)cc(C(F)(F)F)n1`: the AC50 was > 26 µM (inactive).

For the compound `Cn1ncc2c(O/N=C(\N)c3ccc(C(C)(C)C)cc3)ncnc21`, the AC50 is > 26 µM (inactive).

On to `O=C(Nc1ccc2nc3n(c(=O)c2c1)CCCCC3)c1c(F)ccc([N+](=O)[O-])c1F`, for which the AC50 was > 26 µM (inactive).

On to `c1nc(NCc2ccc3c(c2)OCO3)c2cc(-c3ccc4c(c3)OCCO4)ccc2n1`, for which the AC50 was > 26 µM (inactive).

With `Oc1cc(-c2ccc(N3CCCCC3)nc2)cc2cccnc12`, the AC50 is > 26 µM (inactive).

Regarding `Cc1ccc(S(=O)(=O)Nc2ccc(O)c3ccccc23)c(C)c1`, the AC50 was > 26 µM (inactive).

As for `FC(F)(F)c1cnc(NNC(=S)Nc2ccccc2Cl)c(Cl)c1`, the AC50 is > 26 µM (inactive).

`NC(=NCCCCCCN=C(N)/N=C(\N)Nc1ccc(Cl)cc1)/N=C(\N)Nc1ccc(Cl)cc1`: the AC50 was > 26 µM (inactive).

With `O=C(C1=C[C@@H](c2ccc(C(F)(F)F)cc2)C[C@@H](OCCCCO)O1)N1CCN(Cc2ccccc2)CC1`, the AC50 was > 26 µM (inactive).

With `COc1ccc(Nc2nc(N3CCCC3)c3ccccc3n2)cc1`, the AC50 is 17.1 µM.

With `COc1ccc2cc3[n+](cc2c1OC)CCc1cc2c(cc1-3)OCO2`, the AC50 is > 26 µM (inactive).

Regarding `Cc1ccc(-c2nn(-c3ccccc3)cc2/C=N/NC(=O)c2ccc(Br)o2)cc1`, the AC50 was > 26 µM (inactive).

As for `OCCCNc1c2ccccc2nc2ccccc12`, the concentration at half-maximal activity (AC50) was 7.37 µM.

Turning to `COc1cccc(C(NC(C)=O)c2ccc3cccnc3c2O)c1` (stereo not given), the AC50 was > 26 µM (inactive).

Turning to `CCN(CC)C(=O)c1ccc(S(=O)(=O)N2CCC(c3nc4ccccc4s3)CC2)cc1`, the AC50 was > 26 µM (inactive).

For the compound `C=C(C)C(=O)N1CC2(CC(c3cccc(NC(=O)COc4ccc(Cl)cc4)c3)=NO2)C[C@@H]1C(N)=O` (stereo not given in full), the AC50 is > 26 µM (inactive).

As for `C=C1C(=O)C=C2CN(C(=O)c3ccccc3)[C@@](Cc3ccc(F)cc3)(C(=O)OC)[C@@H]12`, the AC50 was > 26 µM (inactive).

Regarding `C/C(=N\NC(=O)c1cc(-c2cccnc2)nc2ccccc12)c1ccccc1O`, the AC50 was > 26 µM (inactive).

In the case of `Cc1ccc(NC(=O)Nc2cccc([N+](=O)[O-])c2)cc1F`, the AC50 was > 26 µM (inactive).

On to `O=C(N/N=C/c1cccnc1)c1ccccc1NS(=O)(=O)c1cccs1`, for which the AC50 was > 26 µM (inactive).

For the compound `CC(=O)NN1C(=O)c2ccc3c4c(ccc(c24)C1=O)C(=O)N(NC(C)=O)C3=O`, the AC50 was > 26 µM (inactive).

For the compound `COc1ccc(CNCCC(c2ccccc2)c2ccc3c(c2)OCO3)cc1` (stereo not given), the AC50 is > 26 µM (inactive).

In the case of `COc1cc(OC)c2cc(C(=O)N/N=C/c3ccccc3O)[nH]c2c1`, the AC50 was > 26 µM (inactive).

As to `c1ccc(-c2nnc(-c3ccccn3)nc2NC2CCCCC2)cc1`, the AC50 was > 26 µM (inactive).

Consider `Cc1nnsc1C(=O)N/N=C/c1ccc2ccccc2c1O`, for which the AC50 is > 26 µM (inactive).

For `O=C(Cc1ccc([N+](=O)[O-])cc1)Nc1cccnc1`, the AC50 is > 26 µM (inactive).

In the case of `O=S(=O)(Nc1cc(Sc2cccc3cccnc23)c(O)c2ccccc12)c1ccc(F)cc1`, the AC50 is > 26 µM (inactive).

As for `Cc1c(C)c2cccnc2c2ncccc12`, the AC50 is > 26 µM (inactive).

Regarding `CCCCCCCCNc1ncnc2ccccc12`, the AC50 was > 26 µM (inactive).

Turning to `Cc1cc(C(C)(C)C)cc(C)c1C[n+]1ccc2ccccc2c1`, the AC50 is > 26 µM (inactive).

For the compound `COc1cc(/C=C2\CC(C(C)(C)C)C/C(=C\c3cc(OC)c(OC)c(OC)c3)C2=O)cc(OC)c1OC` (stereo not given), the AC50 was > 26 µM (inactive).

On to `COc1ccc(/C=C2\CN(Cc3ccccc3)C/C(=C\c3ccc(OC)c(O)c3)C2=O)cc1O`, for which the AC50 is > 26 µM (inactive).

On to `Cc1ccccc1Oc1nc(-c2ccccn2)nc2ccccc12`, for which the AC50 is > 26 µM (inactive).

`CCCCCCCC[n+]1c(C)n(-c2ccccc2)c2ccc(NC(C)=O)cc21`: the AC50 was > 26 µM (inactive).

Take `Cc1ccc2cc(C3C(C#N)=C(N)Oc4c3ccc3cccnc43)c(=O)[nH]c2c1` (stereo not given): the AC50 was > 26 µM (inactive).

`Cc1nc2c3cc(F)ccc3n(Cc3ccccc3)c2s1`: the AC50 was > 26 µM (inactive).

Consider `Brc1ccc(N/N=C(/N=Nc2nn[nH]n2)c2ccccc2)cc1`, for which the AC50 was > 26 µM (inactive).

As to `O=C(/C=C/c1cccc([N+](=O)[O-])c1)c1ccc([N+](=O)[O-])o1`, the AC50 is > 26 µM (inactive).

Regarding `CCn1c(=NC(=O)c2ccc(S(=O)(=O)N3CCOCC3)cc2)sc2cccc(OC)c21`, the AC50 was > 26 µM (inactive).

For the compound `CN(c1ccccc1)S(=O)(=O)c1ccc(NC(=O)c2nc(S(C)(=O)=O)ncc2Cl)cc1`, the AC50 is > 26 µM (inactive).

Consider `C=C(C(=O)c1ccccc1)C(C)C(=C)C(=O)c1ccccc1`, for which the AC50 was > 26 µM (inactive).

Consider `Cc1ccc(NC2=C/C(=N/S(=O)(=O)c3cccs3)c3ccccc3C2=O)cc1C`, for which the AC50 was > 26 µM (inactive).

For `CC1=NN(c2nc3ccccc3[nH]2)C(=O)C1Cc1ccccc1` (stereo not given), the AC50 is > 26 µM (inactive).

Take `Cc1ccc(N=Nc2c(O)ccc3n[nH]nc23)cc1`: the AC50 is > 26 µM (inactive).

`Cc1cc(/C=N/n2c(COc3ccccc3C)nc3ccccc3c2=O)c(O)c([N+](=O)[O-])c1`: the AC50 is > 26 µM (inactive).

For `c1ccc2c(CN3CCCCCCC3)c[nH]c2c1`, the AC50 was > 26 µM (inactive).

Turning to `CCCCC1CCC(C(=O)N(CC(C)C)c2c(N)n(Cc3ccccc3)c(=O)[nH]c2=O)CC1` (stereo not given), the AC50 was > 26 µM (inactive).

Take `Cn1ncnc2c(=O)n(C)c(=O)nc1-2`: the AC50 is > 26 µM (inactive).

In the case of `COc1ccc(-c2cc(-c3nc4ccccn4c3NCc3ccccc3)ccc2OC)cc1`, the AC50 was > 26 µM (inactive).

In the case of `O=C(c1cnc(N2CCN(c3ccccn3)CC2)c2ccccc12)N1CCN(c2cccc(Cl)c2)CC1`, the AC50 is > 26 µM (inactive).
